This note sets out measurements from publication PMC6361841, “Repurposing of Drugs as Novel Influenza Inhibitors From Clinical Gene Expression Infection Signatures” (Frontiers in Immunology, 2019).

pEC50: −log10 of the molar value. Structures can show the parent of a compound that is named as a salt. Where two headings read alike, the source gives them in different places.

What is called pEC50 is the EC50 on a negative log10 scale, so that one unit is a factor of ten.

For experiment [1], the system named is influenza A/Quebec/144147/09 (H1N1)pdm09 virus. Format: in vivo, C57BL/6N mice. The conditions noted are these: for Clinical benefit in terms of survival vs saline (placebo) group: mg/kg/day: oseltamivir 10, monensin 10, diltiazem 90, etilefrine 3, lanatoside C 100, prednisolone 5, flucytosine 240, felbinac 5, timolol 50; for Weight loss vs saline (placebo) group: oseltamivir 10, diltiazem 90, etilefrine 3 mg/kg/day.

Experiment [2] has as its system MucilAir® human airway epithelium. Format: cell-based.
Another experiment relates to A(H1N1)pdm09 virus. Type of experiment: cell-based, influenza virus. The conditions noted are these: for Viral titer, Dilution #2: virus 10^5 TCID50/mL pre-incubated 1 h; for Viral titer, Dilution #2 / Viral titer, Dilution #1: diltiazem 9 µM, etilefrine 18 µM, oseltamivir 1 µM; for Viral titer, Dilution #1: virus 10^6 TCID50/mL pre-incubated 1 h; for Mean relative Viral production: virus pre-incubated 1 h, relative to PBS control.

The test system of experiment [3] is influenza A/Lyon/969/09 (H1N1)pdm09 virus. Format: cell-based.
For experiment [4], the system named is influenza A/Quebec/144147/09 (H1N1)pdm09 virus. Format: in vivo, C57BL/6N mice. The conditions noted are these: […]; for Survival: mg/kg/day: oseltamivir 10, monensin 10, diltiazem 90, etilefrine 3; for Weight loss: oseltamivir 10, monensin 10, diltiazem 90 mg/kg/day.
Experiment [5] relates to A/Lyon/969/09 (H1N1)pdm09 virus. Nature of the experiment: microbe, parasite or virus in culture. Format: cell-based, influenza A(H1N1)pdm09 virus.
Experiment [6] has the same test system. Description: microbe, parasite or virus in culture. Type of experiment: cell-based, influenza A(H1N1)pdm09 virus. The conditions noted are these: Influenza A virus, 6 h pre-treatment only, A549, Figure 2B.
In another experiment the test system is B/Massachusetts/2/2106. Nature of the experiment: Antiviral efficacy in A549 cells, B strain. Format: cell-based, influenza virus.
The test system of another experiment is A/Texas/126/2016 (H3N2). Nature of the experiment: Antiviral efficacy in A549 cells, H3N2 strain. Format: cell-based, influenza virus.
Where [7] appears, read: 24 h p.i., oseltamivir 0.1 µM, diltiazem 9 µM or both.
Where [8] appears, read: 48 h p.i., oseltamivir 0.1 µM, diltiazem 9 µM or both.
[9] abbreviates: 96 h p.i., oseltamivir 0.1 µM, diltiazem 9 µM or both.
Where [10] appears, read: oseltamivir 1 μM, diltiazem 90 μM.
The mark [11] stands for this setting: Influenza A virus, H1N1, 48 h, pre-treatment/treatment in vitro, A549, […], read-out: EC50.
Setting [12] is: pre-treatment/treatment in vitro, A549, […], read-out: EC50.

With `CCOC(=O)C1=C[C@@H](OC(CC)CC)[C@H](NC(C)=O)[C@@H](N)C1` [Oseltamivir], in experiment [1], the “Clinical benefit in terms of survival vs saline (placebo) group” value (“Clinical benefit … vs saline (placebo) group” below) was “clinical improvement”. In experiment [1], the “Weight loss vs saline (placebo) group” value was “clinical improvement”. The “Δ TEER (CI95)” value in experiment [2] (setting [7]) is reported as 8.98 (-81.72 – 99.68) Ohm/cm^2; in [2] (24 h p.i., oseltamivir 1 µM, diltiazem 90 µM or both) it was -24.32 (-58.00 – 9.36) Ohm/cm^2; in [2] (setting [8]), 20.09 (-39.75 – 79.94) Ohm/cm^2; in experiment [2] (48 h p.i., oseltamivir 1 µM, diltiazem 90 µM or both) it was 7.26 (-85.73 – 100.3) Ohm/cm^2; in experiment [2] (setting [9]) it was -209.2 (-271.5 – -146.8) Ohm/cm^2. In addition, the “TEER during the time-course of infection” value in experiment [2] (oseltamivir 1 μM, diltiazem 90 μM or both) was “stabilized TEER”. In addition, the “Viral titer, Dilution #2” value with A(H1N1)pdm09 virus is on record as 4.30 log TCID50/ml. In addition, the “Viral titer, Dilution #1” value in the experiment on A(H1N1)pdm09 virus stood at 5.63 log TCID50/ml. Also, the “Mean relative Viral production” value in the experiment on A(H1N1)pdm09 virus was 130.3 % of mock-treated. For the same compound, the “Apical viral titer log TCID50/ml (CI95)” value is on record as 6.02 (4.69 – 7.35) log TCID50/ml in experiment [3] (setting [7]); 8.61 (7.43 – 9.80) log TCID50/ml in experiment [3] (setting [8]); 8.30 (7.73 – 8.87) log TCID50/ml in experiment [3] (72 h p.i., oseltamivir 0.1 µM, diltiazem 9 µM or both); 7.80 (6.56 – 9.04) log TCID50/ml in [3] (setting [9]); 7.09 (5.79 – 8.40) log TCID50/ml in [3] (96 h p.i., oseltamivir 1 µM, diltiazem 90 µM or both). The “Effect on viral replication vs untreated control” value in [3] (oseltamivir 0.1 μM, diltiazem 9 μM (CMAP) or both, from 5 h p.i., once daily 5 days) is recorded as “no significant advantage over the untreated control”. Further, the “Reduction in apical viral titers at 48 h p.i. compared to the untreated control” value in experiment [3] (setting [10]) is listed as above 3 log. In experiment [3] (setting [10]), the “Virus on the basolateral medium” value was “No virus was detected”. The “Delay of the peak of viral production” value in [3] (oseltamivir 1 μM, diltiazem 90 μM (10-fold CMAP)) amounted to 24 h. Moreover, the “Reduction in apical peak viral titers compared to the untreated control” value in experiment [3] (oseltamivir 1 μM, diltiazem 90 μM or both, 48 h p.i. untreated vs. 72 h p.i. treated) is above 2 log. Besides, in [4], the Survival result was “completely prevented mortality”. Further, the “Mice rescued from death” value in experiment [4] (oseltamivir 10 mg/kg/day, diltiazem 90 mg/kg/day) is given as 40%. The Weight loss result in experiment [4] was “reduced weight loss”.

The compound `NC(=O)c1ncn([C@@H]2O[C@H](CO)[C@@H](O)[C@H]2O)n1` [Ribavirin] had a pEC50 in experiment [5] (Influenza A virus, H1N1, A549, 48 h) of 9.07.

For the compound `CNC(=C[N+](=O)[O-])NCCSCc1ccc(CN(C)C)o1` [Ranitidine], the values for the pEC50 in [5] (setting [11]) and in experiment [6] were 9.17 and 5.96, respectively.

For `COc1cc(NS(=O)(=O)c2ccc(N)cc2)nc(OC)n1` [Sulfadimethoxine], the pEC50 in experiment [5] (setting [11]) is 9.16.

For the compound `CC(=O)O[C@H]1C[C@@]2(C)[C@@H](C[C@@H](O)[C@H]3[C@@]4(C)CC[C@@H](O)[C@@H](C)[C@@H]4CC[C@@]32C)/C1=C(\CCC=C(C)C)C(=O)O` [Fusidic acid], the pEC50 in [5] (setting [11]) was 10.42.

In the case of `CC[C@H]1OC(=O)[C@H](C)[C@@H](O[C@H]2C[C@@](C)(OC)[C@@H](O)[C@H](C)O2)[C@H](C)[C@@H](O[C@@H]2O[C@H](C)C[C@H](N(C)C)[C@H]2O)[C@](C)(O)C[C@@H](C)/C(=N\OCOCCOC)[C@H](C)[C@@H](O)[C@]1(C)O` [Roxythromycin, Roxithromycin], the pEC50 in experiment [5] (setting [11]) is 9.85.

Consider `Nc1[nH]c(=O)ncc1F` [Flucytosine], for which the “Clinical benefit … vs saline (placebo) group” value in [1] is “no clinical benefit”. Further, the pEC50 in experiment [5] (setting [11]) is 8.69.

Turning to `CC(C)NCC(O)COc1cccc2[nH]ccc12` (centres unmarked) [Pindolol], the pEC50 in [5] (setting [11]) was 9.10.

Take `C[C@]12C=CC(=O)C=C1CC[C@@H]1[C@@H]2[C@@H](O)C[C@@]2(C)[C@H]1CC[C@]2(O)C(=O)CO` [prednisolone]: the “Clinical benefit … vs saline (placebo) group” value in experiment [1] is on record as “no clinical benefit”.

Turning to `CC[C@@]1([C@@H]2O[C@@H]([C@H]3O[C@@](O)(CO)[C@H](C)C[C@@H]3C)C[C@@H]2C)CC[C@H]([C@]2(C)CC[C@]3(C[C@H](O)[C@@H](C)[C@@H]([C@@H](C)[C@@H](OC)[C@H](C)C(=O)O)O3)O2)O1` [Monensin], the “Clinical benefit … vs saline (placebo) group” value in [1] is on record as “clinical improvement”. Also, the pEC50 in experiment [5] (setting [11]) was 8.49. In addition, in experiment [6], the pEC50 is 6.96. Also, in experiment [4], the Survival entry is given as “completely prevented mortality” and the Weight loss entry is reported as “reduced weight loss”.

Take `O=c1c(-c2ccc(O)cc2)coc2cc(O)cc(O)c12` [Genistein]: the pEC50 in experiment [5] (setting [11]) is 8.97.

`CCN(CC)CCOC(=O)C(c1ccccc1)c1ccccc1` [Adiphenine]: in [5] (setting [11]), the pEC50 was 8.20.

For `Nc1nc(=O)c2nc(CNc3ccc(C(=O)N[C@@H](CCC(=O)O)C(=O)O)cc3)cnc2[nH]1` [Folic acid], in experiment [5] (setting [11]), the pEC50 was 9.66.

`N=C(N)NC(=O)c1nc(Cl)c(N)nc1N` [Amiloride]: in experiment [5] (setting [11]), the pEC50 is 9.39.

In the case of `CC(=O)O[C@H]1C[C@H](O[C@H]2[C@@H](O)C[C@H](O[C@H]3[C@@H](O)C[C@H](O[C@H]4CC[C@@]5(C)[C@H](CC[C@@H]6[C@@H]5C[C@@H](O)[C@]5(C)[C@@H](C7=CC(=O)OC7)CC[C@]65O)C4)O[C@@H]3C)O[C@@H]2C)O[C@H](C)[C@H]1O[C@@H]1O[C@H](CO)[C@@H](O)[C@H](O)[C@H]1O` [Lanatoside C], in [1], the “Clinical benefit … vs saline (placebo) group” value is given as “no clinical benefit”.

As for `CCCCCCC[N+](CC)(CC)CCCCc1ccc(Cl)cc1` [Clofilium tosylate], the pEC50 in experiment [5] (setting [12]) was 9.80.

Take `CC(C)(C)NC[C@H](O)COc1nsnc1N1CCOCC1` [Timolol]: in experiment [1], the “Clinical benefit … vs saline (placebo) group” value is given as “no clinical benefit”.

Consider `CCNCC(O)c1cccc(O)c1` (centres unmarked) [Etilefrine], for which, in experiment [1], the “Clinical benefit … vs saline (placebo) group” value is listed as “significantly improved survival” and the “Weight loss vs saline (placebo) group” value is on record as “significantly improved”. Also, the “Reduction in lung viral titers (LVTs) on day 5 p.i.” value in experiment [1] (mouse, in vivo) is listed as “at least 1 log”. Further, in the experiment with B/Massachusetts/2/2106 (dose CMAP), the “Relative Viral production” value is 7.3 % of mock-treated and the Viral titer stood at 3.97 log TCID50/ml. In the experiment with B/Massachusetts/2/2106 (dose CMAP/10), the “Relative Viral production” value was 15.0 % of mock-treated and the Viral titer was 4.3 log TCID50/ml. Moreover, in the experiment with A/Texas/126/2016 (H3N2) (dose CMAP), the “Relative Viral production” value is on record as 1 % of mock-treated and the Viral titer was determined as 3.63 log TCID50/ml. In addition, in the experiment on A/Texas/126/2016 (H3N2) (dose CMAP/10), the “Relative Viral production” value is on record as 14.7 % of mock-treated and the Viral titer is on record as 4.8 log TCID50/ml. For the same compound, the pEC50 in experiment [5] (setting [11]) was 9.47. In addition, the “Effect of virus pre-incubation on final viral titers vs PBS-incubated controls” value with A(H1N1)pdm09 virus (pre-incubation before infection) is on record as “did not affect final viral titers”. Further, in the experiment with A(H1N1)pdm09 virus, the “Viral titer, Dilution #2” value came to 4.63 log TCID50/ml; the “Viral titer, Dilution #1” value worked out at 5.30 log TCID50/ml; the “Mean relative Viral production” value is given as 100.0 % of mock-treated. The compound further displayed a Survival in experiment [4] of 50%.

On to `OC(CCN1CCCCC1)(c1ccccc1)C1CC2C=CC1C2` (centres unmarked) [Biperiden], for which the pEC50 in experiment [5] (setting [11]) was 9.42.

For `CNC(C)C1CCC(N)C(OC2C(N)CC(N)C(OC3OCC(C)(O)C(NC)C3O)C2O)O1` (centres unmarked) [Gentamycin, Gentamicin], the pEC50 in experiment [5] (setting [11]) is 10.41.

`COc1cc(NS(=O)(=O)c2ccc(N)cc2)ncn1` [Sulfamonomethoxine]: the pEC50 in experiment [5] (setting [11]) is 9.55.

On to `c1ccc(CC2=NCCN2)cc1` [Tolazoline], for which the pEC50 in [5] (setting [11]) was 9.03.

Consider `O=c1cc(-c2ccc(O)cc2)oc2cc(O)cc(O)c12` [Apigenin], for which, in [5] (setting [11]), the pEC50 is 9.68.

With `C[C@H](CCC(=O)O)[C@H]1CC[C@H]2[C@@H]3[C@@H](O)C[C@@H]4C[C@H](O)CC[C@]4(C)[C@H]3CC[C@]12C` [Urseodeoxycholic acid, Ursodeoxycholic acid], in experiment [5] (setting [11]), the pEC50 was 9.21.

`O=C(O)Cc1ccc(-c2ccccc2)cc1` [Felbinac]: in [1], the “Clinical benefit … vs saline (placebo) group” value was “no clinical benefit”. Further, in [5] (setting [11]), the pEC50 was 7.46.

Consider `O=NN(CCCl)C(=O)NCCCl` [Carmustine], for which the pEC50 in [5] (setting [11]) was 10.15.

`CC1(C)S[C@@H]2[C@H](NC(=O)Cc3ccccc3)C(=O)N2[C@H]1C(=O)O` [Benzathin Benzylpenicilline, Benzathine benzylpenicillin]: the pEC50 in experiment [5] (setting [12]) was 9.59.

With `CN(C)CCN(Cc1ccc(Cl)cc1)c1ccccn1` [Choropyramine, Chloropyramine], the pEC50 in [5] (setting [11]) is 10.15.
